This passage reports IC50 results from patent EP2145877A2, “Aurora Kinase inhibitors” (Takeda Pharmaceutical Company Limited, priority 2006, dated 2008).

This assay addresses Aurora B/INCENP (Homo sapiens, UniProt Q96GD4). The assay is described as follows: Inhibition of AIK: Aurora B/INCENP Direct Fluorescence Polarization (IMAP) kinase assay. In kind it is biochemical. The settings on record: IC50 against AIK B; 10 uM ATP, 0.8 nM Aurora B/INCENP, 45 min at room temperature, FP readout; values given as bins. How it is done:
Detection of the reaction product is performed by addition of Progressive IMAP binding reagent (Molecular Devices). Reaction product may be determined quantitatively by FP using an Analyst HT plate reader (Molecular Devices) with an excitation wavelength at 485 nm and emission at 530 nm and using a Fluorescein 505 dichroic mirror.
The assay reaction may be initiated as follows: 2 ul of (3x) 300 nM Fl-Peptide/30 uM ATP was added to each well of the plate, followed by the addition of 2 ul of (3x) inhibitor (2 fold serial dilutions for 11 data points for each inhibitor) containing 15% DMSO. Two microliters of (3x) 2.4 nM AuroraB/INCENP solution may be added to initiate the reaction (final enzyme concentration was 0.8 nM for Aurora B/INCENP). The reaction mixture may then be incubated at room temperature for 45 min, and quenched and developed by addition of 20 ul of 1 to 400 diluted Progressive IMAP binding reagent in 1x proprietary Progressive IMAP binding buffer A. Fluorescence polarization readings of the resulting reaction mixtures may be measured after a 60-minute incubation at room temperature.
IC50 values may be calculated by non-linear curve fitting of the compound concentrations and fluorescent polarization values to the standard IC50 equation.

Molecules are shown by their SMILES.

Chain of Aurora B/INCENP (Q96GD4 whole entry): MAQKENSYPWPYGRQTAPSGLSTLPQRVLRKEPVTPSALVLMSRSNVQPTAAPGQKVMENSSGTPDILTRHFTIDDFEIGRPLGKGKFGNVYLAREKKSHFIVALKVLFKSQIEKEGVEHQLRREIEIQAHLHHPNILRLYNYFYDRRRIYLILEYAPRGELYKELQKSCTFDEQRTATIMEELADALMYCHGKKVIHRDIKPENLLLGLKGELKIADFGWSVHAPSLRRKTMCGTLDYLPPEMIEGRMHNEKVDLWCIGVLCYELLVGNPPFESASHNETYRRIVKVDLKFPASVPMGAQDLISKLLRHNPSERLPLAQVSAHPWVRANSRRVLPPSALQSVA
Chain of Aurora B/INCENP (Q9NQS7 whole entry partner): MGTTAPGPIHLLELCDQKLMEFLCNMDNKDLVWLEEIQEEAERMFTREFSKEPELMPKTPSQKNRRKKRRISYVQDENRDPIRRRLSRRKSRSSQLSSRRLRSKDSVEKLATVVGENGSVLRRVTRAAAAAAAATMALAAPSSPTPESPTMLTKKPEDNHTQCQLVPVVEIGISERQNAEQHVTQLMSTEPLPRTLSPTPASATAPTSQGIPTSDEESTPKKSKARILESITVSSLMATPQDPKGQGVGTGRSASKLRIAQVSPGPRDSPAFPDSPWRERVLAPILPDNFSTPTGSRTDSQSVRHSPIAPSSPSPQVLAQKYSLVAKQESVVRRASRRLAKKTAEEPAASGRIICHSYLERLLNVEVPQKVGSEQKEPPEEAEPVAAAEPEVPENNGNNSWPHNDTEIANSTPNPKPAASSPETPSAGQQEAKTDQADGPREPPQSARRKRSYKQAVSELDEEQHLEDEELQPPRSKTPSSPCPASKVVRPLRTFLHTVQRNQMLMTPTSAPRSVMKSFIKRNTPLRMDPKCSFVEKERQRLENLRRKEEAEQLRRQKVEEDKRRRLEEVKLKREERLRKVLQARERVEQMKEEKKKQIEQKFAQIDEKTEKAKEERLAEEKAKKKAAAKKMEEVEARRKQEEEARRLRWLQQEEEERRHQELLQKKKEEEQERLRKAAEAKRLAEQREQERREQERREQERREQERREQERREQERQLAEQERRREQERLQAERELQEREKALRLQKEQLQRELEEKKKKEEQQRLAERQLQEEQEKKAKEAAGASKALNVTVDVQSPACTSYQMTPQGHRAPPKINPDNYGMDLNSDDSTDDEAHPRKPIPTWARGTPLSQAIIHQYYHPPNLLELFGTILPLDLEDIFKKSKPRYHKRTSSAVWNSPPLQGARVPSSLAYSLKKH

In general, IC50 refers to the concentration that gives 50% inhibition. Higher therefore signals weaker potency in that assay. The compound `CNS(=O)(=O)c1cccc(-c2ccc(C)c3[nH]c4ncc(C)cc4c23)c1` [Compound 15, 3-(3,8-dimethyl-9H-pyrido[2,3-b]indol-5-yl)-N-methylbenzenesulfonamide] came in with an IC50 of no more than 5 nM.

`CCS(=O)(=O)c1cccc(-c2cnc(Cl)c3[nH]c4ncc(C)cc4c23)c1` [Compound 40, 8-chloro-5-[3-(ethylsulfonyl)phenyl]-3-methyl-9H-pyrido[4',3':4,5]pyrrolo[2,3-b]pyridine] registered a 50% inhibitory concentration (IC50) of no more than 5 nM.

In turn, `CCS(=O)(=O)c1cccc(-c2cnc(OCCCO)c3[nH]c4ncc(C)cc4c23)c1` [Compound 55, 3-[5-(3-Ethanesulfonyl-phenyl)-3-methyl-9H-dipyrido[2,3-b;4',3'-d]pyrrol-8-yloxy]-propan-1-ol] gave an IC50 of no more than 5 nM.

For the compound `CCS(=O)(=O)c1cccc(-c2cnc(OC[C@H](C)O)c3[nH]c4ncc(C)cc4c23)c1` [Compound 62, (S)-1-[5-(3-Ethanesulfonyl-phenyl)-3-methyl-9H-dipyrido[2,3-b;4',3'-d]pyrrol-8-yloxy]-propan-2-ol], the IC50 was no more than 5 nM.

In turn, `CCS(=O)(=O)c1cccc(-c2cnc(OCC3CCN(C)CC3)c3[nH]c4ncc(Cl)cc4c23)c1` [Compound 72, 3-Chloro-5-(3-ethanesulfonyl-phenyl)-8-(1-methyl-piperidin-4-ylmethoxy)-9H-dipyrido[2,3-b;4',3'-d]pyrrole] came in with a concentration for half-maximal inhibition (IC50) of no more than 5 nM.

`CCS(=O)(=O)c1cccc(-c2cc(C(=O)NC[C@H](C)O)c(C)c3[nH]c4ncc(C)cc4c23)c1` [Compound 100, (S)-5-(3-(ethylsulfonyl)phenyl)-N-(2-hydroxypropyl)-3,8-dimethyl-9H-pyrido[2,3-b]indole-7-carboxamide] registered an IC50 of no more than 5 nM.

`CCS(=O)(=O)c1cccc(-c2cc(C(=O)NCCO)c(C)c3[nH]c4ncc(C)cc4c23)c1` [Compound 101, 5-(3-(ethylsulfonyl)phenyl)-N-(2-hydroxyethyl)-3,8-dimethyl-9H-pyrido[2,3-b]indole-7-carboxamide] gave an IC50 of no more than 5 nM.

In turn, `CCS(=O)(=O)c1cccc(-c2cc(C(N)=O)cc3[nH]c4ncc(C)cc4c23)c1` [Compound 128, 5-(3-Ethanesulfonyl-phenyl)-3-methyl-9H-pyrido[2,3-b]indole-7-carboxylic acid amide] yielded a concentration for half-maximal inhibition (IC50) of no more than 5 nM.

Regarding `CCS(=O)(=O)c1cccc(-c2cc(C(=O)O)cc3[nH]c4ncc(C)cc4c23)c1` [Compound 140, 5-(3-Ethanesulfonyl-phenyl)-3-methyl-9H-pyrido[2,3-b]indole-7-carboxylic acid], the half-inhibitory concentration (IC50) was no more than 5 nM.

On to `CCS(=O)(=O)c1cccc(-c2ccc(OC)c3[nH]c4ncc(C)cc4c23)c1` [Compound 157], for which the IC50 was no more than 5 nM.

The compound `CCS(=O)(=O)c1cccc(-c2ccc(O)c3[nH]c4ncc(C)cc4c23)c1` [Compound 158, 5-(3-(ethylsulfonyl)phenyl)-3-methyl-9H-pyrido[2,3-b]indol-8-ol] yielded a concentration for half-maximal inhibition (IC50) of no more than 5 nM.

`CCNS(=O)(=O)c1cccc(-c2ccc(OC)c3[nH]c4ncc(C)cc4c23)c1` [Compound 170, N-ethyl-3-(8-methoxy-3-methyl-9H-pyrido[2,3-b]indol-5-yl)benzenesulfonamide] had a half-inhibitory concentration (IC50) of no more than 5 nM.

With `CCS(=O)(=O)c1cccc(-c2ccc(OCC3CCNCC3)c3[nH]c4ncc(C)cc4c23)c1` [Compound 185, 5-(3-(ethylsulfonyl)phenyl)-3-methyl-8-(piperidin-4-ylmethoxy)-9H-pyrido[2,3-b]indole], the IC50 is no more than 5 nM.

`Cc1cnc2[nH]c3c(OCCCN(C)C)ccc(-c4cccc(S(=O)(=O)C5CC5)c4)c3c2c1` [Compound 194, 3-(5-(3-(cyclopropylsulfonyl)phenyl)-3-methyl-9H-pyrido[2,3-b]indol-8-yloxy)-N,N-dimethylpropan-1-amine] had a 50% inhibitory concentration (IC50) of no more than 5 nM.

Compound `CCS(=O)(=O)c1cccc(-c2ccc(OCC3CCN(C)CC3)c3[nH]c4ncc(Cl)cc4c23)c1` [Compound 200, 3-chloro-5-(3-(ethylsulfonyl)phenyl)-8-((1-methylpiperidin-4-yl)methoxy)-9H-pyrido[2,3-b]indole] gave an IC50 of no more than 5 nM.

As to `CCS(=O)(=O)c1cccc(-c2ccc(OCC3CCNCC3)c3[nH]c4ncc(Cl)cc4c23)c1` [Compound 201, 3-chloro-5-(3-(ethylsulfonyl)phenyl)-8-(piperidin-4-ylmethoxy)-9H-pyrido[2,3-b]indole], the IC50 is no more than 5 nM.

For the compound `CCS(=O)(=O)c1cccc(-c2ccc(OCCCN(C)C)c3[nH]c4ncc(C)cc4c23)c1` [Compound 206, 3-(5-(3-(ethylsulfonyl)phenyl)-3-methyl-9H-pyrido[2,3-b]indol-8-yloxy)-N,N-dimethylpropan-1-amine], the IC50 is no more than 5 nM.

Regarding `CCS(=O)(=O)c1cccc(-c2ccc(OCCCO)c3[nH]c4ncc(C)cc4c23)c1` [Compound 217, 3-(5-(3-(ethylsulfonyl)phenyl)-3-methyl-9H-pyrido[2,3-b]indol-8-yloxy)propan-1-ol], the IC50 was no more than 5 nM.

Take `CCS(=O)(=O)c1cccc(-c2ccc(OCCCN(C)C)c3[nH]c4ncc(Cl)cc4c23)c1` [Compound 220, 3-(3-chloro-5-(3-(ethylsulfonyl)phenyl)-9H-pyrido[2,3-b]indol-8-yloxy)-N,N-dimethylpropan-1-amine]: the half-inhibitory concentration (IC50) was no more than 5 nM.

As for `CCS(=O)(=O)c1cccc(-c2ccc(OC[C@H](O)CO)c3[nH]c4ncc(C)cc4c23)c1` [Compound 231, (R)-3-(5-(3-(ethylsulfonyl)phenyl)-3-methyl-9H-pyrido[2,3-b]indol-8-yloxy)propane-1,2-diol], the IC50 is no more than 5 nM.

Consider `CCN(CCO)CCCOc1ccc(-c2cccc(S(=O)(=O)C3CC3)c2)c2c1[nH]c1ncc(C)cc12` [Compound 270, 2-((3-(5-(3-(cyclopropylsulfonyl)phenyl)-3-methyl-9H-pyrido[2,3-b]indol-8-yloxy)propyl)(ethyl)amino)ethanol], for which the 50% inhibitory concentration (IC50) was no more than 5 nM.

As for `CCN(CCCOc1ccc(-c2cccc(S(=O)(=O)C3CC3)c2)c2c1[nH]c1ncc(Cl)cc12)CCOP(=O)(O)O` [Compound 299, 2-((3-(3-chloro-5-(3-(cyclopropylsulfonyl)phenyl)-9H-pyrido[2,3-b]indol-8-yloxy)propyl)(ethyl)ammo)ethyl dihydrogen phosphate], the IC50 was no more than 5 nM.

Take `Cc1cnc2[nH]c3c(OC[C@@H](O)CN(C)C)ccc(-c4cccc(S(=O)(=O)C5CC5)c4)c3c2c1` [Compound 313, (S)-1-(5-(3-(cyclopropylsulfonyl)phenyl)-3-methyl-9H-pyrido[2,3-b]indol-8-yloxy)-3-(dimethylamino)propan-2-ol]: the IC50 is no more than 5 nM.
